The results in this text go back to patent US20210317145A1, “Boronic Acid Derivatives” (Merck Patent GmbH, priority 2018, published 2021).

In experiment [1] the target is LMP7 (purified human immuno proteasome) (Homo sapiens, UniProt P20618+P28062). Briefly: Determination of LMP7 activity (fluorescence intensity assay, Suc-LLVY-AMC). As to conditions: for Selectivity LMP7 vs Beta5: LMP7 versus Beta5, incubation for 20 minutes; for IC50: purified human immuno proteasome 0.25 nM, incubation for 20 minutes at 25° C., Suc-LLVY-AMC 40 μM. It is filed as biochemical. How it is done:
Determination of LMP7 Activity:
Measurement of LMP7 inhibition is performed in 384 well format based on fluorescence intensity assay.
(§1) Purified human immuno proteasome (0.25 nM) and serial diluted compounds in DMSO (range of concentrations from 30 μM to […]) or controls are incubated for 20 minutes or 120 minutes (long incubation) at 25° C. in assay buffer containing 50 mM Tris pH 7.4, 0.03% SDS, 1 mM EDTA and 1% DMSO. The reaction is initiated by the addition of the fluorogenic peptide substrate, Suc-LLVY-AMC (Bachem 1-1395), at a concentration of 40 μM. After 60 minutes of incubation at 37° C., fluorescence intensity is measured at λex=350 nm and λem=450 nm with a fluorescence reader (Perkin Elmer Envision reader or equivalent).
(§2) Unless indicated otherwise the results are obtained after incubation for 20 minutes.

Experiment [2] deals with Beta5 (purified human constitutive proteasome) (Homo sapiens, UniProt P20618+P28074). Description: Determination of Beta5 activity (fluorescence intensity assay, Suc-LLVY-AMC). It is filed as biochemical. The settings on record: purified human constitutive proteasome 1.25 nM, incubation for 20 minutes at 25° C., Suc-LLVY-AMC 40 μM. As to the method: Determination of Beta5 Activity:
Measurement of Beta5 inhibition is performed in 384 well format based on fluorescence intensity assay.
as §1, with “constitutive” for “immuno”, “(1.25” for “(0.25”
as §2

SMILES strings stand for the structures.

As for `O=C(N[C@@H](Cc1coc2ccccc12)B(O)O)C1Cc2ccccc2O1` (single isomer, unassigned) [Compound 36], the “Selectivity LMP7 vs Beta5” value in experiment [1] (listed as drawing 86) was “+ (Selectivity <100)”. Further, the concentration for half-maximal inhibition (IC50) in experiment [1] is at most 50 nM; in experiment [2], 50 to 500 nM.

On to `O=C(N[C@@H](Cc1coc2ccccc12)B(O)O)[C@@H]1CCCO1` [Compound 26, [(1R)-2-(benzofuran-3-yl)-1-[[(2S)-tetrahydro-furan-2-carbonyl]amino]-ethyl]boronic acid], for which, in experiment [1], the “Selectivity LMP7 vs Beta5” value is given as “++ (100 ≤ Selectivity < 300)” and the IC50 lay within 50 to 500 nM. The IC50 in experiment [2] is 5000 to 30000 nM.

Consider `CSCC(=O)NC(Cc1coc2c(C)c(Cl)ccc12)B(O)O` (stereo not drawn) [Compound 20, [2-(6-chloro-7-methyl-benzofuran-3-yl)-1-[(2-methylsulfanylacetyl)-amino]ethyl]boronic acid], for which, in experiment [1], the “Selectivity LMP7 vs Beta5” value is recorded as “+++ (300 ≤ Selectivity < 500)” and the IC50 is at most 50 nM. Besides, the IC50 in experiment [2] was in the range of 500 to 5000 nM.

Consider `COCC(=O)N[C@@H](Cc1coc2ccccc12)B(O)O` [Compound 28, [(1R)-2-(benzofuran-3-yl)-1-[(2-methoxy-acetyl)amino]ethyl]-boronic acid], for which, in experiment [1], the “Selectivity LMP7 vs Beta5” value was “+ (Selectivity <100)” and the IC50 is at most 50 nM. In experiment [2], the half-maximal inhibitory concentration (IC50) is 500 to 5000 nM.

`O=C(N[C@@H](Cc1coc2ccccc12)B(O)O)[C@@H]1CCOC1` [Compound 33, [(1R)-2-(benzofuran-3-yl)-1-[[(3R)-tetrahydro-furan-3-carbonyl]-amino]ethyl]boronic acid]: the “Selectivity LMP7 vs Beta5” value in experiment [1] is reported as “++++ (Selectivity ≥ 500)”. Besides, the 50% inhibitory concentration (IC50) is at most 50 nM in experiment [1] and 500 to 5000 nM in experiment [2].

Regarding `O=C(N[C@@H](Cc1coc2ccccc12)B(O)O)C1SCCS1` [Compound 8, [(1R)-2-(benzofuran-3-yl)-1-(1,3-dithiolane-2-carbonylamino)ethyl]-boronic acid], in experiment [1], the “Selectivity LMP7 vs Beta5” value was “++ (100 ≤ Selectivity < 300)” and the IC50 is at most 50 nM. This compound also showed an IC50 in experiment [2] of 500 to 5000 nM.

Turning to `O=C(N[C@@H](Cc1coc2ccccc12)B(O)O)C1Cc2ccccc2O1` (single isomer, unassigned) [Compound 37], the “Selectivity LMP7 vs Beta5” value in experiment [1] (listed as drawing 87) is “+++ (300 ≤ Selectivity < 500)”. For the same compound, the IC50 in experiment [1] was at most 50 nM; in experiment [2], 500 to 5000 nM.

In the case of `O=C(N[C@@H](Cc1coc2ccccc12)B(O)O)[C@H]1CCCO1` [Compound 27, [(1R)-2-(benzofuran-3-yl)-1-[[(2R)-tetrahydro-furan-2-carbonyl]amino]-ethyl]boronic acid], in experiment [1], the “Selectivity LMP7 vs Beta5” value is “++ (100 ≤ Selectivity < 300)” and the concentration for half-maximal inhibition (IC50) is at most 50 nM. Besides, in experiment [2], the IC50 fell in the range of 500 to 5000 nM.

Take `COCCC(=O)N[C@@H](Cc1coc2ccccc12)B(O)O` [Compound 31, [(1R)-2-(benzofuran-3-yl)-1-(3-methoxy-propanoylamino)ethyl]-boronic acid]: in experiment [1], the “Selectivity LMP7 vs Beta5” value is reported as “++ (100 ≤ Selectivity < 300)” and the IC50 was at most 50 nM. Also, in experiment [2], the IC50 lay within 50 to 500 nM.

Turning to `O=C(N[C@@H](Cc1coc2ccccc12)B(O)O)C1OCCS1` (stereo partly drawn) [Compound 11, [(1R)-2-(benzofuran-3-yl)-1-(1,3-oxathiolane-2-carbonylamino)ethyl]-boronic acid], in experiment [1], the “Selectivity LMP7 vs Beta5” value is on record as “++ (100 ≤ Selectivity < 300)” and the IC50 is at most 50 nM. Besides, the IC50 in experiment [2] lay in the range of 50 to 500 nM.

Consider `Cc1cccc2c1OC[C@H]2C[C@H](NC(=O)[C@@H]1CCOC1)B(O)O` [Compound 42, [(1R)-2-[(3S)-7-methyl-2,3-dihydrobenzofuran-3-yl]-1-[[(3R)-tetra-hydrofuran-3-carbonyl]-amino]ethyl]boronic acid], for which, in experiment [1], the “Selectivity LMP7 vs Beta5” value is recorded as “+++ (300 ≤ Selectivity < 500)” and the IC50 was 50 to 500 nM. The IC50 in experiment [2] was 5000 to 30000 nM.

On to `O=C(N[C@@H](Cc1coc2ccccc12)B(O)O)[C@H]1CCOC1` [Compound 32, [(1R)-2-(benzofuran-3-yl)-1-[[(3S)-tetrahydro-furan-3-carbonyl]-amino]ethyl]boronic acid], for which, in experiment [1], the “Selectivity LMP7 vs Beta5” value is “++ (100 ≤ Selectivity < 300)” and the IC50 was at most 50 nM. The compound further yielded an IC50 in experiment [2] of 5000 to 30000 nM.

With `O=C(CSCCCO)N[C@@H](Cc1coc2ccccc12)B(O)O` [Compound 15, [(1R)-2-(benzofuran-3-yl)-1-[[2(3-hydroxy-propylsulfanyl)acetyl]-amino]ethyl]boronic acid], in experiment [1], the “Selectivity LMP7 vs Beta5” value is listed as “+ (Selectivity <100)” and the IC50 was at most 50 nM. The same compound returned an IC50 in experiment [2] of 50 to 500 nM.

For the compound `CC(C)(O)CC(=O)N[C@@H](Cc1coc2ccccc12)B(O)O` [Compound 25, [(1R)-2-(benzofuran-3-yl)-1-[(3-hydroxy-3-methylbutanoyl)amino]-ethyl]boronic acid], in experiment [1], the “Selectivity LMP7 vs Beta5” value was “++ (100 ≤ Selectivity < 300)” and the IC50 was at most 50 nM. In experiment [2], this compound returned an IC50 of 5000 to 30000 nM.

On to `CSCC(=O)N[C@H](Cc1coc2c(F)cccc12)B(O)O` [Compound 23], for which, in experiment [1], the “Selectivity LMP7 vs Beta5” value is recorded as “++ (100 ≤ Selectivity < 300)” and the IC50 was 50 to 500 nM. In addition, the IC50 in experiment [2] was in the range of 5000 to 30000 nM.

In the case of `CSCC(=O)N[C@@H](Cc1coc2ccccc12)B(O)O` [Compound 22, [(1R)-2-(benzofuran-3-yl)-1-[(2-methyl-sulfanylacetyl)-amino]ethyl]boronic acid], in experiment [1], the “Selectivity LMP7 vs Beta5” value is “++ (100 ≤ Selectivity < 300)” and the half-inhibitory concentration (IC50) is at most 50 nM. The same compound registered an IC50 in experiment [2] of 500 to 5000 nM.

For `CCSCC(=O)N[C@@H](Cc1coc2ccccc12)B(O)O` [Compound 13, [(1R)-2-(benzofuran-3-yl)-1-[(2-ethylsulfanyl-acetyl)amino]ethyl]-boronic acid], in experiment [1], the “Selectivity LMP7 vs Beta5” value is recorded as “+++ (300 ≤ Selectivity < 500)” and the IC50 was at most 50 nM. For the same compound, the IC50 in experiment [2] lay within 500 to 5000 nM.

With `CSCC(=O)N[C@@H](CC1COc2c(C)cccc21)B(O)O` (stereo partly drawn) [Compound 10, [(1R)-2-(7-methyl-2,3-dihydrobenzofuran-3-yl)-1-[(2-methyl-sulfanylacetyl)amino]-ethyl]boronic acid], the “Selectivity LMP7 vs Beta5” value in experiment [1] is “++++ (Selectivity ≥ 500)”. Besides, the IC50 in experiment [1] is at most 50 nM; in experiment [2], 5000 to 30000 nM.

Regarding `CSCC(=O)N[C@@H](Cc1coc2c(F)cccc12)B(O)O` [Compound 12, [(1R)-2-(7-fluorobenzo-furan-3-yl)-1-[(2-methyl-sulfanylacetyl)amino]-ethyl]boronic acid], the “Selectivity LMP7 vs Beta5” value in experiment [1] is “++ (100 ≤ Selectivity < 300)”. Further, the IC50 in experiment [1] is at most 50 nM; in experiment [2], 50 to 500 nM.

With `CSCC(=O)NC(CC1COc2ccccc21)B(O)O` (stereo not drawn) [Compound 19, [2-(2,3-dihydrobenzo-furan-3-yl)-1-[(2-methylsulfanylacetyl)-amino]ethyl]boronic acid], the “Selectivity LMP7 vs Beta5” value in experiment [1] is “++++ (Selectivity ≥ 500)”. Also, the IC50 in experiment [1] is at most 50 nM; in experiment [2], 5000 to 30000 nM.

In the case of `O=C(N[C@@H](Cc1coc2ccccc12)B(O)O)[C@@H]1COCCO1` [Compound 39, [(1R)-2-(benzofuran-3-yl)-1-[[(2S)-1,4-dioxane-2-carbonyl]-amino]ethyl]boronic acid], the “Selectivity LMP7 vs Beta5” value in experiment [1] is “++ (100 ≤ Selectivity < 300)”. Also, the 50% inhibitory concentration (IC50) in experiment [1] was at most 50 nM; in experiment [2], 500 to 5000 nM.

As for `CSCC(=O)N[C@@H](Cc1coc2c(C(F)(F)F)cccc12)B(O)O` [Compound 3, [(1R)-1-[(2-methyl-sulfanylacetyl)amino]-2-[7-(trifluoromethyl)-benzofuran-3-yl]ethyl]-boronic acid], in experiment [1], the “Selectivity LMP7 vs Beta5” value was “+++ (300 ≤ Selectivity < 500)” and the IC50 was at most 50 nM. Besides, the concentration for half-maximal inhibition (IC50) in experiment [2] lay in the range of 500 to 5000 nM.

As for `CSCC(=O)N[C@@H](Cc1coc2c(Cl)cccc12)B(O)O` [Compound 16, [(1R)-2-(7-chlorobenzo-furan-3-yl)-1-[(2-methylsulfanylacetyl)-amino]ethyl]boronic acid], in experiment [1], the “Selectivity LMP7 vs Beta5” value is given as “++ (100 ≤ Selectivity < 300)” and the IC50 was at most 50 nM. In experiment [2], this compound yielded an IC50 of 50 to 500 nM.

Turning to `CSC(C(=O)N[C@@H](Cc1coc2ccccc12)B(O)O)c1ccccc1` (single isomer, unassigned) [Compound 7], in experiment [1], the “Selectivity LMP7 vs Beta5” value is reported as “++ (100 ≤ Selectivity < 300)” and the half-inhibitory concentration (IC50) was at most 50 nM. In experiment [2], this compound gave an IC50 of 5000 to 30000 nM.

With `COc1cccc2occ(C[C@H](NC(=O)CSC)B(O)O)c12` [Compound 4, [(1R)-2-(4-methoxy-benzofuran-3-yl)-1-[(2-methylsulfanylacetyl)-amino]ethyl]boronic acid], the “Selectivity LMP7 vs Beta5” value in experiment [1] is reported as “+ (Selectivity <100)”. Besides, the values for the IC50 in experiment [1] and in experiment [2] were 500 to 5000 nM and 5000 to 30000 nM, respectively.
